This is an account of results in patent US20250051307A1, “SALT OF 3,4-DIHYDROISOQUINOLINE COMPOUND AND USE THEREOF” (CSPC ZHONGQI PHARMACEUTICAL TECHNOLOGY(SHIJIAZHUANG) CO., …, priority 2021, published 2025).

Like-named read-outs stand apart in the source and are kept apart here. Marks after values point to notes of the source that are not given here.

In series [1] the test system is human acute monocytic leukemia cell line MV4-11. As to the kind of experiment: MV4-11 MTT cell growth inhibition. Type of series: cell-based. The text has this:
The complete medium required for the culture of human acute monocytic leukemia cell line MV4-11 (Shanghai Cell Bank) for experiment was IMDM (CatNO. 12440-053, gibco) supplemented with 10% FBS (Cat NO. SA311.02, cellmax). […] The experiment reagents included dimethyl sulfoxide (Tianjin Kemiou Chemical Reagent Co., Ltd.) and MTT (THIAZOLYL BLUE TETRAZOLIUM BROMIDE, CAS. NO. 298-93-1, VWR). The control compound GSK3326595 for experiment was homemade or commercially available. The test compound was encapsulated and stored at 4° C.
Dimethyl sulfoxide was used as a vehicle to fully dissolve the test compound, thereby formulating a stock solution at a concentration of 5×10^−2 mol/L. The stock solution was stored at −20° C. With the complete medium as diluent, the test compound was subjected to gradient dilution to afford dilutions at different concentrations for standby application. In a 96-well culture plate, the suspension of the human acute monocytic leukemia cell line MV4-11 in the complete medium, at a volume of 100 μL/well (2×10^3 cells/well), was added. […] The OD value at 550 nm was measured with a microplate reader. […] The cell growth inhibition rate was calculated according to the following equation: […]
According to the inhibition rate at each concentration, the half maximal inhibitory concentration IC50 value was calculated using the SPSS software.

Series [2] is described as follows: Solubility determination in water and biological media. Type of series: physicochemical. Particulars: for solubility at 24 h: thermodynamic from solid, 37° C., solubility is in free state; for Solubility compared with the free base sample: water and FassIF media, vs Preparation Example 1. The text has this:
• FaSSIF: human fasted state simulated intestinal fluid; FeSSIF: human fed state simulated intestinal fluid; SGF: human fasted state simulated gastric fluid.

Series [3] is described as follows: Pharmacokinetic experiment in SD rats. Type of series: in vivo. Conditions: 25 mg/kg by gavage; for Cmax / Tmax / AUC(0-t): male, Sprague-Dawley (SD), rat, po, plasma; for AUC(0-t): read-out: AUC0-24h. On the procedure: SD rats (male, 180 g to 200 g, Beijing Vital River Laboratory Animal Technology Co., Ltd.) were administered with the test compounds (solvent: 2% DMSO+98% (0.2 g/mL) hydroxypropyl-β-cyclodextrin, dosing volume: 5 mL/kg) by gavage. Blood was collected from the orbits of the rats at different points in time (0.25, 0.5, 1, 2, 4, 8, 24 h) after administration. The collected whole blood was anticoagulated with heparin sodium and centrifuged at 3000 g to obtain rat plasma samples, and methanol was added thereto to precipitate proteins. The drug concentration in rat plasma after administration was determined by HPLC-MS/MS method. A drug concentration-time curve was plotted and the pharmacokinetic parameters were calculated. Pharmacokinetic behaviors of the compounds after administration in rats were described by means of the parameter estimation of non-compartmental model based on statistical moment theory.

Series [4] has as its target PRMT5 (Homo sapiens (Human), UniProt O14744). Description: Radiometric assay for PRMT5 based on FlashPlate technology. Type of series: biochemical. On the procedure: The radiometric assay for PRMT5 based on FlashPlate technology was adopted to determine IC50 of the test compound.
After dissolved in dimethyl sulfoxide respectively, the test compounds were added into an Echo Qualified 384-well plate and diluted to the desired concentrations. The diluted test compounds were transferred from the Echo Qualified 384-well plate to a 384-well reaction plate using an Echo 550 instrument, and dimethyl sulfoxide was transferred into both the control and blank wells. […] At a volume of 15 μL/well, the 1.67× enzyme solution was added into wells of the 384-well reaction plate. […] The reaction plate was centrifuged at 1000 rpm for 1 min, and incubated at room temperature for 15 min. […] From each well of the test plate, 25 μL was measured and transferred to Flashplate and left at room temperature for 1 h. Thereafter, the Flashplate was washed with 0.1% Tween-20 solution three times. Readings were taken with MicroBeta 2. The data was converted into the inhibition rate data. Inhibition rate=(conversion ratecontrol well−conversion ratecompound well)/(conversion ratecontrol well−conversion rateblank well)×100%.

Series [5] concerns MV4-11 subcutaneous xenograft. Description: MV4-11 subcutaneous xenograft model, in vivo efficacy. Details: species or system NOD-SCID mice. Particulars: for Body Weight Change (%): 11 consecutive days; for d9 Tumor Volume (mm^3): 9th day after administration; for d0 Tumor Volume (mm^3): before grouping for administration, 100 mg/kg group; for RTV (d9): d9 tumor volume/d0 tumor volume; for Tumor Weight: end of experiment; for Tumor Weight / Tumor weight inhibition rate (%): 11 days; for Tumor weight inhibition rate (%): vs vehicle group. On the procedure: Experimental female NOD-SCID mice, SPF grade, 4 to 5 weeks, were purchased from Beijing Vital River Laboratory Animal Technology Co., Ltd. The mice were intraperitoneally injected with cyclophosphamide at a dose of 100 mg/kg one day before cell inoculation. The human acute monocytic leukemia cell line MV4-11 (1×10^7/0.1 ml/mouse) was subcutaneously inoculated into forelimb axilla of mice to establish a subcutaneous xenograft model. When the tumor volumes reached about 110 mm^3 (10 days after inoculation), the mice were equally grouped according to the tumor volume, with 5 mice in each group, i.e., vehicle group (2% DMSO+98% (0.2 g/mL) hydroxypropyl-β-cyclodextrin) and test drug groups. For the test drug groups, the dose of administration was 100 mg/kg, the dosing volume was 10 mL/kg, the dosing frequency was BID, the tumor diameters were measured twice per week, and the data was recorded. The mice were administered for 11 consecutive days. When the experiment ended, the tumors were dissected and weighed.
The body weight growth rate, the tumor volume, and the tumor weight inhibition rate were calculated according to the following equations: body weight growth rate=X(Wi-W0)/XW0×100%, where Wi denoted the body weight of a mouse in each test drug group on the n^th day, and W0 denoted the body weight of a mouse in each test drug group at the beginning of administration; tumor volume (V)=½× a× b^2, where a and b denoted the long diameter and the short diameter of a tumor, respectively; d0 denoted before grouping for administration, d9 denoted the 9th day after administration, relative tumor volume (RTV)=d9 tumor volume/d0 tumor volume; tumor weight inhibition rate=(tumor weightvehicle group−tumor weighttest drug group)/tumor weightvehicle group×100%.

Series [6] in a line: Long-term (three months) stability of Crystal Form I. Type of series: physicochemical.
The nature of series [7]: Solid stability of crystal forms under different humidity conditions (XRPD). Type of series: physicochemical. Particulars: 7 days. An excerpt:
(§1) The samples were subjected to X-ray powder diffraction to investigate the stability of the samples under different conditions, and the results are shown in the following table.

A short description of series [8]: Solid stability of crystal forms at high temperature (XRPD). The format is physicochemical. Particulars: 60° C., sealed, 7 days.
Excerpt: as §1

The mark [9] stands for this setting: vs positive control drug GSK3326595.
The mark [10] stands for this setting: FaSSIF (human fasted state simulated intestinal fluid), FassIF, read-out: 24 h solubility (mg/mL) FassIF.
Setting [11] is: SGF (human fasted state simulated gastric fluid), simulated gastric fluid, SGF, read-out: 24 h solubility (mg/mL) SGF.
Where [12] appears, read: water, read-out: 24 h solubility (mg/mL) Water.

Sequence of PRMT5 (O14744 whole entry): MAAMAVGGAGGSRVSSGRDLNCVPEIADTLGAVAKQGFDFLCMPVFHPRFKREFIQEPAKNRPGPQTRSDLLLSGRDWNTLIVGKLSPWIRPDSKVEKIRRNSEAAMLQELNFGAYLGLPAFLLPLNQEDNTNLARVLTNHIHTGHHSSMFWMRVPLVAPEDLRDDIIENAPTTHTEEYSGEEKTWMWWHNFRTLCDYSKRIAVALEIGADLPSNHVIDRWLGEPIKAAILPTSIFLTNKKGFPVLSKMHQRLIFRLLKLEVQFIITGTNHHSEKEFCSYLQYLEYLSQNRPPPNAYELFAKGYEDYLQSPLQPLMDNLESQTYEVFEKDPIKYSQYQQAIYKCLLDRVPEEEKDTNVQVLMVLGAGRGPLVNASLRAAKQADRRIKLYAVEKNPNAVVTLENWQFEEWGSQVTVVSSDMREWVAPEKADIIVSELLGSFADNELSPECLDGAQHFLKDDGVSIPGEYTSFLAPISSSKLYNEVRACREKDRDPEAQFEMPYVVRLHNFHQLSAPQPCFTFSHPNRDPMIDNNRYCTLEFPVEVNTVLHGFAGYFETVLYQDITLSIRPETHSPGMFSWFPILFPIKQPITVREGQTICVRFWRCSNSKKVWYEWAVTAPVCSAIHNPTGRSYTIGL
Sequence of PRMT5 (Q9BQA1 whole entry partner): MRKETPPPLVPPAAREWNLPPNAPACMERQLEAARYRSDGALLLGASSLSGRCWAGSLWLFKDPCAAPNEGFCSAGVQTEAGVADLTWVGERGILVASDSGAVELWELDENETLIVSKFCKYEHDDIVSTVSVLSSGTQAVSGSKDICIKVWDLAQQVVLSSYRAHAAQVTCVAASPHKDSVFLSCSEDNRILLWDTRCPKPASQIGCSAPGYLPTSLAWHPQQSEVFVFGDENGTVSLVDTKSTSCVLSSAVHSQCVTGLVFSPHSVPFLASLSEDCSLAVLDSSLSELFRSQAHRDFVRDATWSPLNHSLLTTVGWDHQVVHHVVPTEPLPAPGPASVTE

Regarding `CON=C(C)C(=O)N1CCC(Nc2cc(C(=O)NC[C@H](O)CN3CCc4ccccc4C3)ncn2)CC1` [Compound of formula (A)], in series [1] (setting [9]), the “Inhibitory activity at cell level compared with GSK3326595” value is listed as “better inhibitory activities”. For the same compound, in series [2] (setting [10]), the solubility at 24 h was 1.7 mg/mL. In series [2] (setting [11]), the solubility at 24 h was over 4.4 mg/mL. In series [2] (setting [12]), the solubility at 24 h was found to be 0.39 mg/mL. Further, in series [3], the “Absorption in rats compared with GSK3326595” value is “better absorbed”, the highest level (Cmax) was 2370 ng/mL, the Tmax (commonly the time at which the peak concentration occurs) worked out at 0.333 h and the AUC(0-t) turned out to be 4410 ng·h/mL. Besides, the IC50 (usually the point on the concentration scale where inhibition reaches its midpoint) in series [4] (PRMT5 5 nM, [3H]-SAM, 25° C. 60 min, read-out: Enzymology (IC50)) was 0.031 µM. Also, the “Inhibitory activity at enzyme level compared with GSK3326595” value in series [4] (setting [9]) was “better inhibitory activities”. For the same compound, in series [5] (100 mg/kg BID), the “Tumor-inhibitory activity in MV4-11 xenografts model” value is “significant tumor-inhibitory activity”, the “Body Weight Change (%)” value is listed as −6.1%, the “d9 Tumor Volume (mm^3)” value is 55.7 ± 19.7 ***## mm^3 and the “RTV (d9)” value was 0.4 ± 0.1. In series [5] (100 mg/kg BID), the “Tumor Weight” value worked out at 0.0648 ± 0.0267 g and the “Tumor weight inhibition rate (%)” value came out at 91.1%. The “d0 Tumor Volume (mm^3)” value in series [5] is 165.3 ± 27.5 mm^3.

Take `CON=C(C)C(=O)N1CCC(Nc2cc(C(=O)NC[C@H](O)CN3CCc4ccccc4C3)ncn2)CC1.O=C(O)C[C@H](O)C(=O)O` [Example 1]: in series [6] (3 months, long-term stability), the “Crystal Form after storage” value is given as “Crystal Form I” and the Purity after storage is on record as 99.32%. Further, the Initial purity in series [6] (before long-term storage) was found to be 99.43%.

For `CON=C(C)C(=O)N1CCC(Nc2cc(C(=O)NC[C@H](O)CN3CCc4ccccc4C3)ncn2)CC1.O=C(O)C[C@H](O)C(=O)O` [Example 2], the “Crystal form after storage (XRPD)” value in series [7] (23° C./33% RH), in series [7] (25° C./60% RH) and in series [8] was “Crystal Form II” each time. Besides, in series [7], the “Crystal form under different humidity conditions (conclusion)” value is listed as “unchanged”.

In the case of `CON=C(C)C(=O)N1CCC(Nc2cc(C(=O)NC[C@H](O)CN3CCc4ccccc4C3)ncn2)CC1.O=C(O)C[C@H](O)C(=O)O` [Example 3], the “Crystal form after storage (XRPD)” value in series [7] (23° C./33% RH) and in series [7] (25° C./60% RH) was “Crystal Form III” in each case. Besides, the “Crystal form under different humidity conditions (conclusion)” value in series [7] is “unchanged”.

As to `CON=C(C)C(=O)N1CCC(Nc2cc(C(=O)NC[C@H](O)CN3CCc4ccccc4C3)ncn2)CC1.O=C(O)C[C@H](O)C(=O)O` [Example 4], the “Crystal form after storage (XRPD)” value in series [7] (23° C./33% RH) and in series [7] (25° C./60% RH) was “Crystal Form IV” in each case. Besides, the “Crystal form under different humidity conditions (conclusion)” value in series [7] is “unchanged”.

Take `CON=C(C)C(=O)N1CCC(Nc2cc(C(=O)NC[C@H](O)CN3CCc4ccccc4C3)ncn2)CC1.O=C(O)C[C@H](O)C(=O)O` [Example 5]: in series [8], the “Crystal form after storage (XRPD)” value is recorded as “Crystal Form V”.

In the case of `CON=C(C)C(=O)N1CCC(Nc2cc(C(=O)NC[C@H](O)CN3CCc4ccccc4C3)ncn2)CC1.O=C(O)C[C@H](O)C(=O)O` [Example 7], the solubility at 24 h is over 4.7 mg/mL in series [2] (setting [10]), over 4.8 mg/mL in series [2] (setting [11]) and over 4.9 mg/mL in series [2] (setting [12]). Further, the “Solubility compared with the free base sample” value in series [2] was “significantly higher”.

As to `CON=C(C)C(=O)N1CCC(Nc2cc(C(=O)NC[C@H](O)CN3CCc4ccccc4C3)ncn2)CC1.O=C(O)C(=O)O` [Example 11], the solubility at 24 h in series [2] (setting [10]) is over 9.1 mg/mL; in series [2] (setting [11]), over 9.2 mg/mL; in series [2] (setting [12]), over 9.1 mg/mL. For the same compound, the “Solubility compared with the free base sample” value in series [2] was “significantly higher”.

In the case of `CC(=O)N1CCC(Nc2cc(C(=O)NC[C@H](O)CN3CCc4ccccc4C3)ncn2)CC1` [GSK3326595, reference compound], the 50% inhibitory concentration (IC50) in series [1] (Homo sapiens, MV4-11, 144 h, MTT on Day 6) is 0.00668 µM. In series [3], the Cmax – broadly, the maximum level reached in the sampled fluid or tissue – was 60.3 ng/mL; the Tmax is 2.67 h; the AUC(0-t) was found to be 589 ng·h/mL. In series [5] (100 mg/kg BID), the “Body Weight Change (%)” value was −6.8%, the “d9 Tumor Volume (mm^3)” value is given as 135 ± 43** mm^3, the “RTV (d9)” value amounted to 0.8 ± 0.2 and the “Tumor Weight” value was found to be 0.1124 ± 0.0764 g. In series [5] (100 mg/kg BID), the “Tumor weight inhibition rate (%)” value is listed as 84.5%. For the same compound, the “d0 Tumor Volume (mm^3)” value in series [5] was 165.2 ± 23.1 mm^3.
